Measured values: patent US10548897B2, “KSR antagonists” (Icahn School of Medicine at Mount Sinai, priority 2015, dated 2020)

How the values were obtained:
[1] = target: KSR2 (purified hKSR2-rMEK1 complex) (Homo sapiens (Human), UniProt Q6VAB6); experiment: ATP-biotin probe labeling and inhibitor competition (KSR2 band); format: binding; details: ATPbiotin probe labeling competition; 0.1 μM KSR2:MEK1; 27 nM to 20 μM compound; triplicate; read-out: KSR2 IC50
Source text: Human KSR2 (residues 634-950) and rabbit MEK1 (residues 1 to 393) were codon optimized for insect cell expression by DNA 2.0. Inserts were expressed with TEV cleavable 6×-His tags from the pFastBac Dual expression vector. Bacmids were used to transfect adherent SF21 cells and viruses were subsequently titred to high levels through serial infections of SF21 cells. […] Briefly, following infections, cells were harvested, lysed, and affinity purified using Co2+ sepharose resin (GoldBio). […] Dialysis retentate was diluted 3 fold and then applied to a Resourse S ion exchange column. […] One-to-one hKSR2-MEK1 complexes were captured in late fractions from an increasing salt gradient. Complexes were later applied to a 120 mL Superdex 200 gel filtration column and finally concentrated to approximately 10 mg/mL before flash freezing for biochemical assays.
The ATP-biotin assay was performed in buffer containing 25 mM Tris pH 7.5, 150 mM NaCl, 10 mM MgCl2, and 2% DMSO. […] In particular, hKSR2-rMEK1 was pre-incubated with 20 μM of the indicated compounds for 15 minutes. Then, ATP-biotin (Pierce Cat. #88310) was added to a final concentration of 2 μM. Reactions were incubated at room temperature for 5 minutes before being stopped by the addition of 6×SDS loading dye. […] Enhanced chemiluminescence signals corresponding to labeling on KSR2 and MEK1 were visualized and quantified using the Biodoc system (Biorad). Relative signals of Streptavidin HRP on bands corresponding to KSR2 and MEK1 in the presence of compounds relative to DMSO controls were used to determine ‘Percent Inhibition of ATP Probe Labeling’.
For the ATP^biotin labeling competition screen, samples were applied to a 4-20% Tris-HCl gel, separated, and then transferred to a nitrocellulose membrane. The membrane was blocked with 5% bovine serum albumin diluted in TBS-T for 30 minutes and subsequently probed with the Pierce™ High Sensitivity Streptavidin-HRP. After several washes, the membranes were visualized using enhanced chemiluminescence on a Biodoc (Biorad).

[2] = system: ERK; experiment: Inhibitory activity against purified ERK; format: biochemical

KSR2 (purified hKSR2-rMEK1 complex), sequence (Q6VAB6 634-950): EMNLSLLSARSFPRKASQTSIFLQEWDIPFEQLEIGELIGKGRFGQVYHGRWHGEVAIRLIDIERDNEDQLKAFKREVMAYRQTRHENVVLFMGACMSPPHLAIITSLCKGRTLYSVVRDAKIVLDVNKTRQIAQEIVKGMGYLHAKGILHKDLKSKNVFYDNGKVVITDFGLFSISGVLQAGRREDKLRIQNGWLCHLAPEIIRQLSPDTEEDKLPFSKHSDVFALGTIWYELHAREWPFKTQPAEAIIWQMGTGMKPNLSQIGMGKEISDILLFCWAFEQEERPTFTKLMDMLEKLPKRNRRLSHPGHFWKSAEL
KSR2 (purified hKSR2-rMEK1 complex), sequence (P29678 whole entry partner, the tested form may be a part): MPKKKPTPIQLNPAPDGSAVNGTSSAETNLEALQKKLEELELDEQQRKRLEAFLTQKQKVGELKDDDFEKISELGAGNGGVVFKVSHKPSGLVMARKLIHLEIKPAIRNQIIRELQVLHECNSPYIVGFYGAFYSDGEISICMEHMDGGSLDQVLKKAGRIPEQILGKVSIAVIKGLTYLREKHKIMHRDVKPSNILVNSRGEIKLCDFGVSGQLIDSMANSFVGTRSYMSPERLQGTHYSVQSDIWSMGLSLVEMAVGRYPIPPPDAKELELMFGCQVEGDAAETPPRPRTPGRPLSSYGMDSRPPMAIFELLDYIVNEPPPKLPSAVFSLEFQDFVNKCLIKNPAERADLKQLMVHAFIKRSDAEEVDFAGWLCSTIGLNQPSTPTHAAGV

Structure (SMILES): COc1cc2ncnc(Nc3ccc(Oc4ccccc4)cc3C)c2cc1OC [Compound 21, 6,7-Dimethoxy-N-(2-methyl-4-phenoxyphenyl)quinazolin-4-amine 2,2,2-trifluoroacetate]
- IC50 [1]: 120 ± 23 nM
- inhibitory activity against purified ERK [2]: lacked detectable inhibitory activity
